Test in all cases: NCI tumour cell line growth inhibition, 48 h
The test system of experiment [1] is MDA-MB-231.
The test system of experiment [2] is KM-20L2.
The test system of experiment [3] is SNB-78.
The subject of experiment [4] is DMS-114.
For experiment [5], the system named is DLD-1.
For experiment [6], the system named is XF498.
The test system of experiment [7] is LXFL 529.
Experiment [8] has as its system RXF 631.
The subject of experiment [9] is 786-0.

Here are results for 22 molecules from ChEMBL document CHEMBL1201862, “PubChem BioAssay data set” (2004).

SMILES strings stand for the structures.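 96-well plates; 48 h exposure; 5 concentrations. Endpoints by linear interpolation between flanking doses. Not reached: highest tested concentration assigned. Here, GI50 denotes the concentration required for 50% inhibition of growth.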 Activity calls are given as the source filed them. Rule as the data show it: active = GI50 up to about 1.1 µM and inactive = higher. Some results are limits rather than exact numbers.

Take `CCOC(=O)N1CCN(C(=O)Nc2cccc3ccccc23)CC1`: the GI50 in [1] is > 10 µM (inactive).
For the molecule `OCC(CO)CC1COc2ccccc2O1` (stereo unspecified), the GI50 in experiment [1] was > 10 µM (inactive).
Consider `COc1ccc2c(c1)CCCc1cn[nH]c1-2`, for which the GI50 in [2], in experiment [3], in experiment [4], in experiment [5] and in [6] was > 100 µM (inactive) throughout.
`CCNC(=O)N(CC)CN(CC)C(=O)NCC`: the GI50 in [2], in [3], in [7], in [8], in experiment [4] and in [5] was > 100 µM (inactive) throughout. For the same molecule, the GI50 in experiment [6] was > 100 µM (inactive).
As for `O=C1C2=C(C3=NCCc4c[nH]c1c43)C1(C=C(Br)C(O)C(Br)=C1)CCN2` (stereo unspecified), the GI50 was 0.317 µM (active) in experiment [2]; 2.79 µM (inactive) in experiment [3]; 0.202 µM (active) in experiment [4]; 1.67 µM (inactive) in experiment [5]; 7.67 µM (inactive) in experiment [6].
`CNC(=O)SCC(NC(=O)CCC(N)C(=O)O)C(=O)NCC(=O)O` (stereo unspecified): the GI50 was > 100 µM (inactive) in experiment [2]; > 100 µM (inactive) in experiment [3]; 39 µM (inactive) in experiment [4]; > 83 µM (inactive) in experiment [5]; > 100 µM (inactive) in experiment [6].
Turning to `CC(C)=CCc1c(C)cc2cc3c(c(O)c2c1O)C(=O)C=C(O)C3(CC=C(C)C)C/C=C(\C)CO` (stereo unspecified), the GI50 in experiment [2] was 39.9 µM (inactive); in experiment [4] it was 38.9 µM (inactive); in [5], 32.7 µM (inactive); in [6] it was 16.4 µM (inactive).
Consider `CC1=C(C(=O)NNS(=O)(=O)c2ccc(C)cc2)CC(C(=O)NNS(=O)(=O)c2ccc(C)cc2)=C(C)N1`, for which the GI50 in experiment [2] is > 100 µM (inactive); in experiment [3], > 100 µM (inactive); in experiment [7], 52.1 µM (inactive); in experiment [8], > 100 µM (inactive); in experiment [4], > 100 µM (inactive); in experiment [9], > 100 µM (inactive). The GI50 in [5] and in experiment [6] was > 100 µM (inactive) each time.
As for `COC(=O)NCCc1n[nH]c2c1C(=O)C=C(N1CCOCC1)C2=O`, the GI50 in experiment [1] and in experiment [9] was > 100 µM (inactive) in each case.
With `COc1ccc(C(O)(c2ccccc2)c2nccc3ccccc23)cc1` (stereo unspecified), the GI50 is 7.31 µM (inactive) in experiment [1] and 7.62 µM (inactive) in [9].
In the case of `CCOC(=O)C1(C(=O)OCC)CSC1`, the GI50 in experiment [1] is > 100 µM (inactive).
Same read-out and setting: with `N#Cc1c(NC(=S)Nc2ccc(Cl)cc2)sc2c1CCCC2` the figure was 3.54 µM (inactive).
With `CC(=O)OC/C=C\Cn1nc(Br)c(=O)[nH]c1=O`, in [1], the GI50 was 18 µM (inactive).
Regarding `O=C1c2ccccc2C(=O)N1CC(CN1C(=O)c2ccccc2C1=O)(C(=O)OCc1ccccc1)C(=O)OCc1ccccc1`, the GI50 in experiment [1] was > 100 µM (inactive).
In the case of `CC1(C)CCCCCC(C)(CCCO)C1=O` (stereo unspecified), the GI50 in experiment [1] and in experiment [9] was > 100 µM (inactive) in each case.
For the molecule `FC(F)(F)C1=NC(=NNc2nnc(-c3ccccc3)c(-c3ccccc3)n2)N=C(C(F)(F)F)C1`, the GI50 in [2] is 16.8 µM (inactive); in experiment [3], > 67.9 µM (inactive); in [4], 6.14 µM (inactive); in [5], 12.6 µM (inactive); in [6], 20 µM (inactive).
`ICC1CCCO1` (stereo unspecified): the GI50 in experiment [2], in experiment [3], in [7], in experiment [8], in [4] and in experiment [5] was > 100 µM (inactive) each time. The GI50 in [6] was > 100 µM (inactive).
`CC(C)(C)[C@H]1CO[C@]2(C)[C@@H]3C[C@@H]3C(=O)N12`: the GI50 in experiment [2], in experiment [3], in experiment [8], in experiment [4], in [9] and in experiment [5] was > 100 µM (inactive) throughout. In addition, in experiment [6], the GI50 is > 100 µM (inactive).
Consider `C[N+]1(C)CCCC(C#N)(c2ccccc2)CC1` (stereo unspecified), for which, in experiment [9], the GI50 is > 100 µM (inactive).
For `COc1ccc2[nH]c3c(C)c4ccnc(NCCCN(C)CCCNc5ccc6nnn7c8ccccc8c(=O)c5c67)c4c(C)c3c2c1`, the GI50 was 0.181 µM (active) in experiment [1] and 0.237 µM (active) in [9].
For the molecule `O=S1(=O)C[C@H](O)[C@H](O)CS1`, the GI50 in experiment [2], in [3], in experiment [7], in experiment [4], in [9] and in [5] was > 100 µM (inactive) in each case. In addition, in [6], the GI50 was > 100 µM (inactive).
Consider `O=C1C=C(N2CC2)C(=O)C=C1N1CC1`, for which the GI50 was 0.354 µM (active) in experiment [2]; 0.138 µM (active) in [3]; 0.159 µM (active) in experiment [7]; 2.3 µM (inactive) in experiment [1]; 0.117 µM (active) in experiment [5]; 0.105 µM (active) in experiment [6].
